Source: US20200261485A1, “COMPOSITIONS COMPRISING 3'-O-GLUCURONIDE EPICATECHIN AND METHODS OF MAKING AND USING SUCH COMPOSITIONS” (NESTEC S.A., priority 2015, published 2020)
Entries after “also recorded” stand apart in the source; their conditions may differ. Blank lines part the entries; values can stand above or below the compound they belong to.

How the values were obtained:
[1] = test system: endothelial nitric oxide synthase; experiment: Phosphorylation of endothelial nitric oxide synthase (western blot) in isolated aortic rat rings; type: cell-based; set-up: dose or concentration left out as unconfirmed; settings: isolated Wistar rat aortic rings, 1 h incubation, FIG. 12
Experimental: Furthermore, comparative experiments were conducted on the expression of endothelial nitric oxide synthase in isolated aortic rat rings.
Thoracic aortas were obtained from male adults Wistar rats after euthanasia. Each aorta was carefully dissected and harvested cleaned of excess tissue and cut into three equal segments, approximately 7 mm long. All aortic rings were pre-incubated for 30 min in Krebs solution (20 mM Hepes buffer, pH 7.4, containing 119 mM NaCl, 4.7 mM KCl, 1 mM MgSO4, 0.4 mM NaH2PO4, 0.15 mM Na2HPO4, 5 mM NaHCO3, 1.25 mM CaCl2, 5.5 mM glucose) aerated with 95% O2 and 5% CO2 at 37° C. and then incubated with vehicle (DMSO 1%) or the different metabolites for 1 h. Metabolites were first dissolved in DMSO 1% and tested in a final concentration […]. At the end of the incubation period aortic rings were frozen at −70° C. until the homogenate preparation. Homogenates for western blot and western blot determinations were carried out by the regular procedures and phosphorylation level of endothelial nitric oxide synthase was evaluated.

[2] = target: T1, h-TRPA1 (Homo sapiens, UniProt O75762); experiment: Calcium imaging of activation of CHO cells expressing h-TRPA1; type: cell-based; settings: for Activity vs hTRPA1: CHO cells expressing h-TRPA1; for TRPA1 agonism (result in words): activation of CHO cells expressing h-TRPA1, FIGS. 4, 6, 7
T1 construct: expressed in transfected cells; host or cells: CHO cells
Experimental: Specifically, the activation of CHO cells expressing h-TRPA1 was tested according to the calcium imaging method described in Riera et al. (Riera, C. E., Vogel, H., Simon, S. A., Damak, S., & le Coutre, J. Sensory attributes of complex tasting divalent salts are mediated by TRPM5 and TRPV1 channels. J. Neurosci. 29, 2654-2662 (2009)).

[3] = concentration (max) tested 100 mM
[4] = concentration (max) tested 3 mM

T1 sequence (O75762 whole entry): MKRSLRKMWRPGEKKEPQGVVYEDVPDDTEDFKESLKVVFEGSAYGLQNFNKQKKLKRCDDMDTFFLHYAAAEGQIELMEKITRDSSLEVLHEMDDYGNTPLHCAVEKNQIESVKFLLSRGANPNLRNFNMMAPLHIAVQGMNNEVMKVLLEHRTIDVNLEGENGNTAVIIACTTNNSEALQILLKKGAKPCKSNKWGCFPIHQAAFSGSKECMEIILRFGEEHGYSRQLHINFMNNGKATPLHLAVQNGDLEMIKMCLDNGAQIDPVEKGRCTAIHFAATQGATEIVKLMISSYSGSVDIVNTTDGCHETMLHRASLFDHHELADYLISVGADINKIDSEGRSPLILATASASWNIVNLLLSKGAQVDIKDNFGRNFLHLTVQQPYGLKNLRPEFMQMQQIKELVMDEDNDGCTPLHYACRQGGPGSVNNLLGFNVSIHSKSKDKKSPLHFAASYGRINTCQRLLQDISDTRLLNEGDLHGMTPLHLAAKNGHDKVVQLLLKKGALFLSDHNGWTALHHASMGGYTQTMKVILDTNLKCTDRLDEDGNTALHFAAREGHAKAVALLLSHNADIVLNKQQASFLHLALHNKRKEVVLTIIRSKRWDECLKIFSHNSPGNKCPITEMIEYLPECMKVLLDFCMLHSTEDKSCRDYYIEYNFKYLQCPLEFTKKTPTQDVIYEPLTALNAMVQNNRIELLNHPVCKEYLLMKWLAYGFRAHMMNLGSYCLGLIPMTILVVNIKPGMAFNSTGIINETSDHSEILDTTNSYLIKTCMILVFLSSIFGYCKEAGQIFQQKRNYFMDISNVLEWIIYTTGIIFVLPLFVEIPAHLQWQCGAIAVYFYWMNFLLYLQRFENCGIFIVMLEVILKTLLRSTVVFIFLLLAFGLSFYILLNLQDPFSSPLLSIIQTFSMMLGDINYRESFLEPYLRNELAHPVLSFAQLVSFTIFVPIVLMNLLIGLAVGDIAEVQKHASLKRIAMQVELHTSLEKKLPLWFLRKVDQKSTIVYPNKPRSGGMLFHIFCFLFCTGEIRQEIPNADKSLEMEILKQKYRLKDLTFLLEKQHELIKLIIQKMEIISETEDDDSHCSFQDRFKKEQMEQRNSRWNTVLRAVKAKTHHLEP

Compound: O=C(O)[C@H]1O[C@@H](Oc2ccc([C@H]3Oc4cc(O)cc(O)c4C[C@H]3O)cc2O)[C@H](O)[C@@H](O)[C@@H]1O [4′-O-glucuronide epicatechin]
eNOS phosphorylation relative to control and chemically similar epicatechins [1]: increased eNOS phosphorylation

Compound: COc1ccc(C2Oc3cc(O)cc(O)c3CC2O)cc1O (stereo not drawn) [4′-methyl-EC]
Activity vs hTRPA1 [2, 3]: Inactive

Compound: COc1ccc(C2CC(=O)c3c(O)cc(O)cc3O2)cc1O[C@@H]1O[C@H](C(=O)O)[C@@H](O)[C@H](O)[C@H]1O (stereo partly drawn) [Hesperetin-3-O-Glucuronide]
Activity vs hTRPA1 [2, 4]: Inactive

Compound: Hesperetin-4-O-Glucuronide
Activity vs hTRPA1 [2, 4]: Inactive

Compound: Hesperetin-7-3-O-Glucuronide
Activity vs hTRPA1 [2, 4]: Inactive

More lines, main results first:

Activity vs hTRPA1 ([2]; concentration (max) tested 133 mM): Active
EC50 ([2]; activation of hTRPA1 in CHO cells): ~80 mM
Compound: O=C(O)[C@H]1O[C@@H](Oc2cc([C@H]3Oc4cc(O)cc(O)c4C[C@H]3O)ccc2O)[C@H](O)[C@@H](O)[C@@H]1O [3′-O-glucuronide epicatechin]
eNOS phosphorylation relative to control and chemically similar epicatechins [1]: increased eNOS phosphorylation
TRPA1 agonism (result in words) [2]: is a TRPA1 agonist; also recorded: agonist of the cation channel of TRPA1
Concentration dependence of activation of CHO cells expressing h-TRPA1 ([2]; different concentrations, dose-response curve, FIGS. 10 and 11): activation occurs in a concentration-dependent manner

Activity vs hTRPA1 [2, 3]: Inactive
TRPA1 agonism (result in words) ([2]; listed as 3′-methyl epicatechin): not TRPA1 agonists
Compound: COc1cc([C@H]2Oc3cc(O)cc(O)c3C[C@H]2O)ccc1O [3′-O-methyl epicatechin]
TRPA1 agonism (result in words) [2]: is not a TRPA1 agonist; also recorded: not TRPA1 agonists

Activity vs hTRPA1 [2, 3]: Inactive
Compound: O=S(=O)(O)Oc1cc([C@H]2Oc3cc(O)cc(O)c3C[C@H]2O)ccc1O [3′-O-sulfate epicatechin]
TRPA1 agonism (result in words) [2]: is not a TRPA1 agonist; also recorded: not TRPA1 agonists

Activity vs hTRPA1 [2, 3]: Inactive
Compound: COc1cc(C2Oc3cc(OS(=O)(=O)O)cc(O)c3CC2O)ccc1O (stereo not drawn) [3′-methyl-7-sulfate-EC]

Activity vs hTRPA1 [2, 3]: Inactive
Compound: O=S(=O)(O)Oc1ccc(C2Oc3cc(O)cc(O)c3CC2O)cc1O (stereo not drawn) [4′-sulfate-EC]

Blockage of the activation of hTRPA1 by 3′-O-glucuronide epicatechin ([2]; selective hTRPA1 antagonist added, FIG. 9): blocked the activation of hTRPA1
Compound: CC(C)c1ccc(NC(=O)Cn2cnc3c2c(=O)n(C)c(=O)n3C)cc1 [HC030031]
